Measurements: patent US10105357B2, “Indication of antibiotic drugs for preparation of cancer inhibition pharmaceutical composition” (LAUNX BIOMEDICAL CO., LTD., priority 2014, dated 2018)
Where two headings read alike, the source gives them in different places.

How the values were obtained:
TOV-21G = test: Cell viability analysis, ovarian cancer TOV-21G; assay type: cell-based, human; settings: Homo sapiens, TOV21G, 72 h, read-out: The results of antibiotic drug inhibiting cancer cell lines (cell viability analysis), TOV-21G
[1] = test system: A549 (Lung Adenocarcinoma); test: Cell viability analysis, lung cancer A549; assay type: cell-based, human; settings: Homo sapiens, A549, 72 h
AsPC-1 = test: Cell viability analysis, pancreatic cancer AsPC-1; assay type: cell-based, human; settings: Homo sapiens, ASPC1, 72 h, read-out: The results of antibiotic drug inhibiting cancer cell lines (cell viability analysis), AsPC-1
[2] = test system: HepG2 (Hepatocellular Carcinoma); test: Cell viability analysis, hepatic cancer HepG2; assay type: cell-based, human; settings: Homo sapiens, HepG2, 72 h
T24 = test: Cell viability analysis, bladder cancer T24; assay type: cell-based, human; settings: Homo sapiens, T-24, 72 h, read-out: The results of antibiotic drug inhibiting cancer cell lines (cell viability analysis), T24
[3] = test system: LoVo (Colorectal Adenocarcinoma); test: Cell viability analysis, colon cancer LoVo; assay type: cell-based, human; settings: Homo sapiens, LoVo, 72 h
[4] = test system: 786-O (Renal adenocarcinoma); test: Cell viability analysis, renal cancer 786-O; assay type: cell-based, human; settings: Homo sapiens, 786-0, 72 h, read-out: The results of antibiotic drug inhibiting cancer cell lines (cell viability analysis), 786-O
U-2OS = test: Cell viability analysis, osteosarcoma U-2OS; assay type: cell-based, human; settings: Homo sapiens, U2OS, 72 h, read-out: The results of antibiotic drug inhibiting cancer cell lines (cell viability analysis), U2OS
[5] = test system: AGS (Gastric Adenocarcinoma); test: Cell viability analysis, gastric cancer AGS; assay type: cell-based, human; settings: Homo sapiens, 72 h
[6] = test system: HeLa (Cervix Adenocarcinoma); test: Cell viability analysis, cervical cancer HeLa; assay type: cell-based, human; settings: Homo sapiens, HeLa, 72 h
[7] = test system: A375 (Amelanotic Melanoma); test: Cell viability analysis, skin cancer A375; assay type: cell-based, human; settings: Homo sapiens, A-375, 72 h
NIH: OVCAR-3 = test: Cell viability analysis, ovarian cancer NIH: OVCAR-3; assay type: cell-based, human; settings: Homo sapiens, OVCAR-3, 72 h, read-out: The results of antibiotic drug inhibiting cancer cell lines (cell viability analysis), NIH-OVCAR-3
[8] = test system: TSGH-8301 (Urinary Bladder Carcinoma); test: Cell viability analysis, bladder cancer TSGH-8301; assay type: cell-based, human; settings: Homo sapiens, 72 h
[9] = test system: MCF7 (Mammary Gland, Adenocarcinoma); test: Cell viability analysis, breast cancer MCF7; assay type: cell-based, human; settings: Homo sapiens, MCF7, 72 h
[10] = test system: MDA-MB-231 (Mammary Gland, Adenocarcinoma); test: Cell viability analysis, breast cancer MDA-MB-231; assay type: cell-based, human; settings: Homo sapiens, MDA-MB-231, 72 h, read-out: The results of antibiotic drug inhibiting cancer cell lines (cell viability analysis), MDA-MB231
[11] = test system: MKN-45 (Gastric Adenocarcinoma); test: Cell viability analysis, gastric cancer MKN-45; assay type: cell-based, human; settings: Homo sapiens, MKN-45, 72 h
[12] = test system: PC3 (p53−) (Prostate Adenocarcinoma); test: Cell viability analysis, prostate cancer PC3; assay type: cell-based, human; settings: Homo sapiens, 72 h
BxPC-3 = test: Cell viability analysis, pancreatic cancer BxPC-3; assay type: cell-based, human; settings: Homo sapiens, BXPC-3, 72 h, read-out: The results of antibiotic drug inhibiting cancer cell lines (cell viability analysis), BxPC-3
[13] = test system: SAS (Tongue squamous cell carcinoma); test: Cell viability analysis, tongue cancer SAS; assay type: cell-based, human; settings: Homo sapiens, 72 h, read-out: The results of antibiotic drug inhibiting cancer cell lines (cell viability analysis), SAS
[14] = test system: HL-60 (Acute Promyelocytic Leukemia); test: Cell viability analysis, leukemia HL-60; assay type: cell-based, human; settings: Homo sapiens, HL-60, 72 h, read-out: cell viability (survival rate), HL-60, drug 10 μM, 72 hours, WST-1, OD450 nm
[15] = test system: C-33A (Cervical carcinoma); test: Cell viability analysis, cervical cancer C-33A; assay type: cell-based, human; settings: Homo sapiens, C-33-A, 72 h, read-out: The results of antibiotic drug inhibiting cancer cell lines (cell viability analysis), C-33A
[16] = test system: Hep3B (hepatocellular carcinoma); test: Cell viability analysis, hepatic cancer Hep3B; assay type: cell-based, human; settings: Homo sapiens, Hep3B, 72 h, read-out: The results of antibiotic drug inhibiting cancer cell lines (cell viability analysis), Hep3B
[17] = test system: HCT116 (p53+) (Colorectal Carcinoma)
[18] = test system: HI650 (Lung Adenocarcinoma); test: Cell viability analysis, lung cancer HI650; assay type: cell-based, human; settings: Homo sapiens, NCI-H1650, 72 h
[19] = test system: BCC (basal cell carcinoma); test: Cell viability analysis, skin cancer BCC; assay type: cell-based, human; settings: Homo sapiens, 72 h, read-out: The results of antibiotic drug inhibiting cancer cell lines (cell viability analysis), BCC
cancer cell lines = test: Cell viability analysis (WST-1) on cancer cell lines; assay type: cell-based, human; settings: drug 10 μM, 72 hours, WST-1; Table 3
[20] = read-out: The results of antibiotic drug inhibiting cancer cell lines (cell viability analysis), A549, A549, repeated experiment
[21] = read-out: cell viability (survival rate), A549, drug 10 μM, 72 hours, WST-1, OD450 nm
[22] = read-out: The results of antibiotic drug inhibiting cancer cell lines (cell viability analysis), HepG2, HepG2, repeated experiment
[23] = read-out: cell viability (survival rate), HepG2, drug 10 μM, 72 hours, WST-1, OD450 nm
[24] = read-out: The results of antibiotic drug inhibiting cancer cell lines (cell viability analysis), LoVo, repeated experiment
[25] = read-out: cell viability (survival rate), LoVo, drug 10 μM, 72 hours, WST-1, OD450 nm
[26] = read-out: The results of antibiotic drug inhibiting cancer cell lines (cell viability analysis), AGS, repeated experiment
[27] = read-out: cell viability (survival rate), AGS, drug 10 μM, 72 hours, WST-1, OD450 nm
[28] = read-out: The results of antibiotic drug inhibiting cancer cell lines (cell viability analysis), HeLa, repeated experiment
[29] = read-out: cell viability (survival rate), HeLa, drug 10 μM, 72 hours, WST-1, OD450 nm
[30] = read-out: The results of antibiotic drug inhibiting cancer cell lines (cell viability analysis), A375, A375, repeated experiment
[31] = read-out: cell viability (survival rate), A375, drug 10 μM, 72 hours, WST-1, OD450 nm
[32] = read-out: The results of antibiotic drug inhibiting cancer cell lines (cell viability analysis), TSGH-8301, TSGH-8301, repeated experiment
[33] = read-out: cell viability (survival rate), TSGH, drug 10 μM, 72 hours, WST-1, OD450 nm
[34] = read-out: The results of antibiotic drug inhibiting cancer cell lines (cell viability analysis), MCF-7, MCF-7, repeated experiment
[35] = read-out: cell viability (survival rate), MCF7, drug 10 μM, 72 hours, WST-1, OD450 nm
[36] = read-out: The results of antibiotic drug inhibiting cancer cell lines (cell viability analysis), MKN-45, MKN-45, repeated experiment
[37] = read-out: cell viability (survival rate), MKN-45, drug 10 μM, 72 hours, WST-1, OD450 nm
[38] = read-out: The results of antibiotic drug inhibiting cancer cell lines (cell viability analysis), PC-3, PC-3, repeated experiment
[39] = read-out: cell viability (survival rate), PC3, drug 10 μM, 72 hours, WST-1, OD450 nm
[40] = read-out: The results of antibiotic drug inhibiting cancer cell lines (cell viability analysis), H1650, H1650, repeated experiment
[41] = read-out: cell viability (survival rate), H1650, drug 10 μM, 72 hours, WST-1, OD450 nm

SMILES	viability at 10 µM (TOV-21G)	viability at 10 µM [1, 20]	viability at 10 µM [1, 21]	viability at 10 µM [2, 22]	viability at 10 µM [2, 23]	viability at 10 µM (T24)	viability at 10 µM [3, 24]	viability at 10 µM [3, 25]	viability at 10 µM [4]	viability at 10 µM (U-2OS)	viability at 10 µM [5, 26]	viability at 10 µM [5, 27]	viability at 10 µM [6, 28]	viability at 10 µM [6, 29]	viability at 10 µM [7, 30]	viability at 10 µM [7, 31]	viability at 10 µM (NIH: OVCAR-3)	viability at 10 µM [8, 32]	viability at 10 µM [8, 33]	viability at 10 µM [9, 34]	also measured
Cc1cc2c(s1)Nc1ccccc1N=C2N1CCN(C)CC1 [Olanzapine (Zyprexa), Olanzapine]	105%	106%	88%	114%	93.3%	110%	81.4%	88.5%	91.8%	66%	122%	84.2%	121%	106%	98.3%	91.9%	96.8%	152%	58.7%	86.8%	viability at 10 µM (AsPC-1): 84.2%; viability at 10 µM [9, 35]: 125%; viability at 10 µM [10]: 111%; viability at 10 µM [11, 36]: 125%; viability at 10 µM [11, 37]: 80.1%; viability at 10 µM [12, 38]: 113%; viability at 10 µM [12, 39]: 92.2%; viability at 10 µM (BxPC-3): 65.9%; viability at 10 µM [13]: 59.3%; viability at 10 µM [14]: 118%; viability at 10 µM [15]: 98.2%; viability at 10 µM [16]: 132%; viability [17]: 124%; viability at 10 µM [18, 40]: 107%; viability at 10 µM [18, 41]: 109%
Cc1noc(NS(=O)(=O)c2ccc(N)cc2)c1C [Sulfisoxazole]	84.5%	105%	39.4%	122%	108%	90.7%	112%	68.8%	93.3%	88.6%	108%	88.7%	120%	78.9%	107%	65.5%	108%	105%	93%	106%	viability at 10 µM (AsPC-1): 80.1%; viability at 10 µM [9, 35]: 46.1%; viability at 10 µM [10]: 104%; viability at 10 µM [11, 36]: 105%; viability at 10 µM [11, 37]: 48.4%; viability at 10 µM [12, 38]: 111%; viability at 10 µM [12, 39]: 36.1%; viability at 10 µM [19]: 102%; viability at 10 µM (BxPC-3): 67.1%; inhibition effect on different cancer cell lines (cancer cell lines): significant inhibition effect; viability at 10 µM [14]: 95.2%; viability at 10 µM [15]: 116%; viability at 10 µM [16]: 110%; viability [17]: 97.9%; viability at 10 µM [18, 40]: 75.9%; viability at 10 µM [18, 41]: 73.9%
CC1(C)S[C@@H]2[C@H](NC(=O)Cc3ccccc3)C(=O)N2[C@H]1C(=O)O [Benzylpenicillin sodium]	112%	97.2%	36.4%	108%	86.4%	108%	78.3%	62.8%	93.2%	71.5%	110%	54.8%	107%	57.1%	113%	51.7%	110%	131%	39.6%	86.9%	viability at 10 µM [9, 35]: 31.3%; viability at 10 µM [10]: 94.7%; viability at 10 µM [11, 36]: 124%; viability at 10 µM [11, 37]: 43.1%; viability at 10 µM [12, 38]: 106%; viability at 10 µM [12, 39]: 36.1%; viability at 10 µM [19]: 97.7%; viability at 10 µM (BxPC-3): 95.3%; inhibition effect on different cancer cell lines (cancer cell lines): significant inhibition effect; viability at 10 µM [13]: 67%; viability at 10 µM [14]: 86.7%; viability at 10 µM [15]: 110%; viability at 10 µM [16]: 113%; viability [17]: 94%; viability at 10 µM [18, 40]: 121%; viability at 10 µM [18, 41]: 57.1%
C=C1[C@H](CO)[C@@H](O)C[C@@H]1n1cnc2c(=O)[nH]c(N)nc21 [Entecavir hydrate]	85.5%	104%	57.4%	88.9%	98.8%	96.4%	96.7%	91.6%	92.7%	85.3%	88.7%	46.4%	76.9%	99.4%	89%	98.6%	109%	103%	53%	92.9%	viability at 10 µM (AsPC-1): 98.4%; viability at 10 µM [9, 35]: 58.6%; viability at 10 µM [10]: 98.9%; viability at 10 µM [11, 36]: 92.5%; viability at 10 µM [11, 37]: 59.7%; viability at 10 µM [12, 38]: 118%; viability at 10 µM [12, 39]: 81.2%; viability at 10 µM [19]: 69.5%; viability at 10 µM (BxPC-3): 97.2%; inhibition effect on different cancer cell lines (cancer cell lines): significant inhibition effect; viability at 10 µM [14]: 74.1%; viability at 10 µM [15]: 96.7%; viability at 10 µM [16]: 90.8%; viability [17]: 99.9%; viability at 10 µM [18, 40]: 84.1%; viability at 10 µM [18, 41]: 80.8%
